The record followed here is US12655150B2 (Cedilla Therapeutics, Inc., priority 2021, dated 2026).

Usually GI50 stands for the concentration giving 50% growth inhibition. Higher therefore signals less potent growth inhibition.

The test deals with NCI-H226. Put plainly: 72H TEAD Proliferation Assay (Cell Titer Glo 2.0). It is filed as cell-based. To be noted: Homo sapiens, NCI-H226, 72 h, CTG 2.0, cell line not given (NCI-H226 responsive, NCI-H28 non-responsive). The gist of the method: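 NF2-deficient NCI-H226 mesothelioma cells, TEAD-dependent, treated 72 h; NF2-wild-type NCI-H28 serves as the TEAD-independent counter-screen for off-target cytotoxicity. Viable cells quantified by CellTiter-Glo 2.0 luminescence; background and time-zero signal subtracted, GI50 from nonlinear dose-response fit.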
A general note: Cellular ATP, detected with luciferase, serves as a proxy for viable cell number.
In the case of `CCC(=O)Nc1ccc2c(c1)nc(-c1ccc(C(C)(C)C)cc1)c1nccn12` [I-134, N-(4-(4-(tert-butyl)phenyl)imidazo[1,2-a]quinoxalin-7-yl)propionamide], the GI50 fell in the range of 1 to 5 µM. The result for `COc1cc(-c2ccc(C(F)(F)F)cc2)nc2cc(C(=O)N[C@@H](CO)CC(C)C)ccc12` [I-370, (R)—N-(1-hydroxy-4-methylpentan-2-yl)-4-methoxy-2-(4-(trifluoromethyl)phenyl)quinoline-7-carboxamide] reads 1 to 5 µM.

`O=C(O)c1ccc2c(c1)nc(N1CCN(C3CC3)CC1)c1cccn12` [I-40, 4-(4-Cyclopropylpiperazin-1-yl) pyrrolo[1,2-a]quinoxaline-7-carboxylic acid] registered a concentration for 50% growth inhibition (GI50) of 1 to 5 µM. The result for `C=CC(=O)Nc1ccc2c(C)cc(-c3ccc(C(C)(C)C)cc3)nc2c1` [I-86, N-(2-(4-(tert-Butyl)phenyl)-4-methylquinolin-7-yl)acrylamide] reads not above 1 µM; that for `COc1cc(-c2ccc(C(F)(F)F)cc2)nc2cc(C(=O)N[C@@H](CO)Cc3ccccc3)ccc12` [I-369, (R)—N-(1-hydroxy-3-phenylpropan-2-yl)-4-methoxy-2-(4-(trifluoromethyl)phenyl)quinoline-7-carboxamide], not above 1 µM; that for `CC(C)(C)c1ccc(-c2nc3cc(C(N)=O)ccc3n3cccc23)cc1` [I-166, 4-(4-(tert-butyl)phenyl)pyrrolo[1,2-a]quinoxaline-7-carboxamide], not above 1 µM. Under `O=C(O)c1ccc2c(c1)nc(NCCC(F)(F)F)c1cccn12` [I-107, 4-((3,3,3-Trifluoropropyl)amino)pyrrolo[1,2-a]quinoxaline-7-carboxylic acid] stands more than 10 µM; under `CC(C)(C)c1ccc(-c2nc3cc(C(=O)O)ccc3n3nccc23)cc1` [I-117, 4-(4-(tert-Butyl)phenyl)pyrazolo[1,5-a]quinoxaline-7-carboxylic acid], 1 to 5 µM; under `CC(C)c1cc(-c2ccc(C(F)(F)F)cc2)nc2cc(C(=O)N[C@H](C)CO)ccc12` [I-426, (R)—N-(1-hydroxypropan-2-yl)-4-isopropyl-2-(4-(trifluoromethyl)phenyl)quinoline-7-carboxamide], 1 to 5 µM. Regarding `C=C(F)C(=O)NCc1nc(-c2ccc(C(F)(F)F)cc2)c2cccnc2n1` [I-307, 2-fluoro-N-((4-(4-(trifluoromethyl)phenyl)pyrido[2,3-d]pyrimidin-2-yl)methyl)acrylamide], the GI50 was not above 1 µM. Under `CC(C)(C)c1ccc(-c2ncn3cc(C(=O)O)ccc23)cc1` [I-144, 1-(4-(tert-Butyl)phenyl)imidazo[1,5-a]pyridine-6-carboxylic acid] stands more than 10 µM; under `CN(C)C(=O)c1ccc2c(c1)nc(-c1ccc(C(C)(C)C)cc1)c1nccn12` [I-74, 4-(4-(tert-Butyl)phenyl)-N,N-dimethylimidazo[1,2-a]quinoxaline-7-carboxamide], 5 to 10 µM; under `C=CC(=O)NCc1nc(-c2ccc(C(F)(F)F)cc2)n2cccnc12` [I-438, N-((6-(4-(trifluoromethyl)phenyl)imidazo[1,5-a]pyrimidin-8-yl)methyl)acrylamide], 1 to 5 µM.

With `O=C(O)c1ccc2c(c1)nc(-c1ccc(C(F)(F)F)cc1)c1nccn12` [I-61, 4-(4-(Trifluoromethyl)phenyl)imidazo[1,2-a]quinoxaline-7-carboxylic acid], the 50% growth inhibitory concentration (GI50) fell in the range of 1 to 5 µM. The result for `CC(C)(C)c1ccc(-c2ncc3ccc(C(=O)O)cn23)cc1` [I-145, 3-(4-(tert-Butyl)phenyl)imidazo[1,5-a]pyridine-6-carboxylic acid] reads more than 10 µM; that for `C=CC(=O)Nc1ccc2c(c1)nc(-c1ccc(C(F)(F)F)cc1F)c1nccn12` [I-133, N-(4-(2-Fluoro-4-(trifluoromethyl)phenyl)imidazo[1,2-a]quinoxalin-7-yl)acrylamide], not above 1 µM; that for `O=C(O)c1ccc2c(c1)nc(N1CCC3(CCC3)CC1)c1cccn12` [I-6, 4-(7-Azaspiro[3.5]nonan-7-yl)pyrrolo[1,2-a]quinoxaline-7-carboxylic acid], not above 1 µM. Regarding `C=CC(=O)Nc1ccc2c(C)cc(-c3ccc(C(F)(F)F)cn3)nc2c1` [I-252, N-(4-methyl-2-(5-(trifluoromethyl)pyridin-2-yl)quinolin-7-yl)acrylamide], the GI50 was not above 1 µM.

Molecule `O=C(O)c1ccc2c(c1)nc(-c1ccc(C(F)(F)F)nc1)c1cccn12` [I-51, 4-(6-(Trifluoromethyl)pyridin-3-yl)pyrrolo[1,2-a]quinoxaline-7-carboxylic acid] showed a concentration for 50% growth inhibition (GI50) of 1 to 5 µM. The result for `COc1cnc(-c2ccc(C(C)(C)C)cc2)c2nccn12` [I-150, 8-(4-(tert-Butyl)phenyl)-5-methoxyimidazo[1,2-a]pyrazine] reads more than 10 µM; that for `C=CC(=O)Nc1nc(-c2ccc(C(C)(C)C)cc2)nc2cc(C(=O)O)ccc12` [I-104, 4-Acrylamido-2-(4-(tert-butyl)phenyl)quinazoline-7-carboxylic acid], more than 10 µM. Under `Cc1cc(C(=O)O)cc2nc(-c3ccc(C(C)(C)C)cc3)c3cccn3c12` [I-321, 4-(4-(Tert-butyl)phenyl)-9-methylpyrrolo[1,2-a]quinoxaline-7-carboxylic acid] stands 1 to 5 µM; under `O=C(O)C1CCN(c2cn3ccnc3c(-c3ccc(C(F)(F)F)cc3)n2)C1` (stereo not shown) [I-234, 1-(8-(4-(Trifluoromethyl)phenyl)imidazo[1,2-a]pyrazin-6-yl)pyrrolidine-3-carboxylic acid], 5 to 10 µM; under `CC1(C)CC2(CCN(c3nc4cc(C(=O)O)ccc4n4cccc34)CC2)CO1` [I-34, 4-(3,3-Dimethyl-2-oxa-8-azaspiro [4.5]decan-8-yl) pyrrolo[1,2-a] quinoxaline-7-carboxylic acid], more than 10 µM. In turn, `C=CC(=O)NCc1nc(-c2ccc(C(F)(F)F)cc2)c2ncccc2n1` [I-305, N-((4-(4-(trifluoromethyl)phenyl)pyrido[3,2-d]pyrimidin-2-yl)methyl)acrylamide] displayed a GI50 not above 1 µM. As for `CCNS(=O)(=O)c1ccc2c(OC)cc(-c3ccc(C(F)(F)F)cc3)nc2c1` [I-417, N-ethyl-4-methoxy-2-(4-(trifluoromethyl)phenyl)quinoline-7-sulfonamide], the 50% growth inhibitory concentration (GI50) was not above 1 µM. As to `COCc1cc(-c2ccc(C(F)(F)F)cc2)nc2cc(C(=O)N[C@H](C)CO)ccc12` [I-271, (R)—N-(1-hydroxypropan-2-yl)-4-(methoxymethyl)-2-(4-(trifluoromethyl)phenyl)quinoline-7-carboxamide], the concentration for 50% growth inhibition (GI50) lay within 1 to 5 µM. The molecule `Cc1cc(-c2ccc(C(F)(F)F)cc2)nc2cc(C(=O)O)ccc12` [I-89, 4-Methyl-2-(4-(trifluoromethyl)phenyl)quinoline-7-carboxylic acid] had a GI50 not above 1 µM. Under `O=C(O)c1ccc2c(c1)nc(-c1ccc(C(F)(F)F)cc1)c1c(F)ccn12` [I-280, 3-fluoro-4-(4-(trifluoromethyl)phenyl)pyrrolo[1,2-a]quinoxaline-7-carboxylic acid] stands not above 1 µM; under `C=CC(=O)NCc1nc(-c2ccc(C(F)(F)F)cc2)c2ccccc2n1` [I-167, N-((4-(4-(trifluoromethyl)phenyl)quinazolin-2-yl)methyl)acrylamide], not above 1 µM; under `C=CC(=O)Nc1ccc2c(C(F)(F)F)cc(-c3ccc(C(C)(C)C)cc3)nc2c1` [I-112, N-(2-(4-(tert-Butyl)phenyl)-4-(trifluoromethyl)quinolin-7-yl)acrylamide], 1 to 5 µM.
